Source: paper PMC5641094, “A peptide antagonist of Prep1-p160 interaction improves ceramide-induced insulin resistance in skeletal muscle cells” (Oncotarget, 2017)

How the values were obtained:
Format in all cases: cell-based, rat
[1] = tested on: PGC-1α and GLUT4 protein expression; experiment: PGC-1α and GLUT4 protein expression, Western blot
Method: Figure 5 Effect of Prep1(54-72) peptide on Akt phosphorylation and PGC-1α and GLUT4 protein levels (A-B) L6 control and Prep1 overexpressing cells were stimulated with Insulin (100nM) and/or C2cer (10μM) and incubated with Prep1(54-72). Protein lysates were analyzed by Western blot using antibodies for pAkt, Akt and for the beta-actin, as a loading control. (C) PGC-1α and GLUT4 protein levels were measured by using specific antibodies for these proteins and beta-actin antibody was used as loading control. Blots were detected by ECL and autoradiography. The autoradiographs are representative of four independent experiments. Asterisks denote statistically significant differences (*p<0.05; **p<0.01; ***p<0.001).
(§1) Total cell lysates were obtained and separated by SDS-PAGE. Briefly, cells were solubilized with lysis buffer containing 50mM HEPES, 150mM NaCl, 10mM EDTA, 10mM Na4P2O7, 2mM sodium orthovanadate, 50mM NaF, 1mM phenylmethylsulfonyl fluoride, 10μg/ml aprotinin, 10μg/ml leupeptin, pH 7.4, and 1% (v/v) Triton X-100. Lysates were clarified by centrifugation at 12,000g for 20 minutes at 4°C. The protein concentrations in the cell lysates were measured using a Bio-Rad DC (detergent compatible) assay. Immunoprecipitation and Western blot analysis have been performed as previously described.

[2] = tested on: IRS1 tyrosine phosphorylation; experiment: IRS1 tyrosine phosphorylation, immunoprecipitation and Western blot; settings: insulin 100nM; for effect on insulin-stimulated IRS1 tyrosine phosphorylation: L6 cells, C2cer 10μM 18h, with or without Prep1(54-72)
Method: Figure 4 Prep1(54-72) peptide restores the insulin signaling inhibited by C2cer and Prep1 L6 cells were stimulated with insulin (100nM) and incubated with Prep1(54-72) in presence of C2cer at 10μM for 18h (A-B) or stable transfection of Prep1 (C-D). Protein lysates were immunoprecipitated with specific IR or IRS1 antibodies and analyzed by Western blot using antibodies for phosphotyrosines (pY) and beta-actin as loading control. Blots were detected by ECL and autoradiography. The autoradiographs are representative of three independent experiments. Asterisks denote statistically significant differences (*p<0.05; **p<0.01).
as §1

L6 cells [3] = experiment: 2-DG uptake in L6 cells; settings: for effect on insulin-stimulated glucose uptake (2-DG): insulin 100nM, C2cer 10μM, with or without Prep1(54-72)
Method: (§2) Figure 6 Effect of Prep1(54-72) peptide on glycogen content and 2-DG uptake L6 control and Prep1 overexpressing cells were stimulated with Insulin (100nM) and/or C2cer (10μM) and incubated with Prep1(54-72). (A) Glycogen content and (B) 2-DG uptake were measured as described in methods. Bars represent the mean ± SD of three independent experiments. Asterisks denote statistically significant differences (*p<0.05; **p<0.01; ***p<0.001).
(§3) Glycogen was isolated from L6 cells homogenized in 0.1% SDS, saturated with Na2SO4 for 30 minutes at 37°C, followed by ethanol (EtOH) precipitation. Glycogen content was determined as previously described. 2-DG uptake by the L6 cells was measured as previously reported.

L6 cells [4] = experiment: Glycogen content in L6 cells; settings: for effect on insulin-stimulated glycogen synthesis: insulin 100nM, C2cer 10μM, with or without Prep1(54-72)
Method: as §2, §3

Row | Compound | decrease of PGC-1α and GLUT4 protein expression ([1]; L6 cells incubated with C2cer 10μM) | effect on insulin-stimulated IRS1 tyrosine phosphorylation [2] | reduction of insulin-stimulated glucose uptake (L6 cells [3]; C2cer exposure (abstract)) [fold] | effect on insulin-stimulated glucose uptake (2-DG) (L6 cells [3]) | reduction of insulin-stimulated glycogen content (L6 cells [4]; C2cer exposure (abstract)) [fold] | effect on insulin-stimulated glycogen synthesis (L6 cells [4]) | effect on decreased PGC-1α and GLUT4 protein expression ([1]; L6 cells with C2cer or Prep1 overexpression, Prep1(54-72)) | IRS1 tyrosine phosphorylation in Prep1 overexpressing cells ([2]; Prep1L6 cells (stably transfected with Prep1 cDNA), incubated with Prep1(54-72))
1 | CCCCCCCCCCCCC/C=C/[C@@H](O)[C@H](CO)NC(C)=O [C2cer, D-erythro-Sphingosine, N-Acetyl-, reference compound] | approximately 35% | blocked | 2.1 | negatively modulated | 1.3 | negatively modulated |  | 
2 | Ac-KQAIYRHPLFPLLALLFEK-NH2 [Prep1(54-72)] |  | restored |  | recovered the insulin response |  | recovered the insulin response | significantly reverted | stimulated similarly to the control cells
